Experimental data from publication PMC12040169 (PLOS Biology, 2025).

assay: in vitro; conditions: human, hela cells, % viability

SMILES	viability at 28.5 h, 10 µM [%]
CCN(CC(=O)NCc1ccccn1)S(=O)(=O)c1ccccc1 [CBK269546]	90.2
Cc1n[nH]c(C)c1CCC(=O)N/N=C/c1ccc(O)cc1 [CBK262927]	109
CC(C)NS(=O)(=O)c1ccc(NS(=O)(=O)c2cccc(C(=O)O)c2)cc1 [CBK296950]	84.3
Cc1nc2c(c(C)c1CC(=O)NCc1cccc(C#N)c1)c(=O)[nH]n2C [CBK304959]	92.4
Cc1cc(Cl)c(S(=O)(=O)Nc2ccon2)cc1OCC(N)=O [CBK266589]	99.6
COc1cc(C)c(Nc2cccc(-c3ccc(O)cc3)n2)cc1OC [CBK037608]	107
CS(=O)(=O)c1ccc(-c2ccc3c(c2)CN(C2CCN(C(=O)c4ccccc4)CC2)CCO3)cc1 [CBK169265]	103
O=C(Nc1nonc1-c1nc2ccccc2n1CCOC(=O)c1ccc(F)cc1)c1ccc(F)cc1 [CBK062653]	102
CCC(CO)Nc1cncc(-c2cccc(/C=C/C(=O)O)c2)n1 (centres unmarked) [CBK065569]	114
FC(F)(F)c1csc(Nc2ccc(Cl)c(Cl)c2)n1 [CBK019093]	85.6
Cc1cc(Cl)c(S(=O)(=O)Nc2ccon2)cc1OCC(=O)NC1CCCCC1 [CBK266785]	93.5
CC(=O)N1Cc2ccccc2OC2(CCN(C(=O)C3CC3)CC2)C1 [CBK285037]	104
CC(C)NC(=O)NC(=O)C1CCN(CCCc2ccc(Cl)c(Cl)c2)CC1 [CBK034947]	89.8
CCN(CC)C(=O)CN1CCC(Oc2cncc(OCc3ccc(Cl)c(Cl)c3)n2)C1 (centres unmarked) [CBK084431]	98.2
CCOC(=O)c1cnc2c(C)c(Cl)ccc2c1NCCCN1CCOCC1 [CBK265296]	99.6
O=c1cc(CSc2nnc(-c3ccccc3)[nH]2)nc2[nH]cnn12 [CBK294398]	96.1
CCOC(=O)c1c(NC(=O)C2CCCN2S(=O)(=O)c2ccccc2)sc2c1CCCC2 (centres unmarked) [CBK265012]	92
COc1ccn2c(CCCN(C)C3Cc4ccccc4C3)nc(-c3ccc4c(c3)OCO4)c2c1 [CBK036303]	100
O=S(=O)(Nc1nccnc1-c1cccs1)c1ccccc1Cl [CBK050775]	94.9
CSc1cccc(NC(=S)N2CCC(N(C)C(C)C)CC2)c1 [CBK294463]	86.8
COc1ccc(C)cc1NC(=O)c1cnc2sc(C)cn2c1=O [CBK287714]	105
CCCNC(=O)CN(C)CC(=O)Nc1sc2c(c1C#N)CCC(C)C2 (centres unmarked) [CBK305845]	82.5

SMILES	viability at 28.5 h, 10 µM [%]
CC(=O)Nc1cccc(-n2nnnc2SCc2noc(C)n2)c1 [CBK304599]	90.9
CN(CCN(C)/N=C/c1cccc2ccccc12)/N=C/c1cccc2ccccc12 [CBK262153]	107
CC(=O)Nc1ccccc1-c1nc2ccccc2nc1OCC(=O)c1ccc(Cl)cc1 [CBK266269]	93.6
CCC(=O)N1CCC(c2nc(Cc3cccs3)no2)C1 (centres unmarked) [CBK282968]	88.5
CSc1ncc(Cl)c(C(=O)Nc2sc3c(c2C(=O)NC2CCS(=O)(=O)C2)CCC(C)C3)n1 (centres unmarked) [CBK268886]	95.2
NC(=O)C1CCN(CC(=O)Nc2ccc([N+](=O)[O-])cc2C(=O)c2ccccc2)CC1 [CBK265782]	89.3
COC(=O)c1c(NC(=O)CC2Nc3ccccc3NC2=O)sc2c1CCC(C(C)(C)C)C2 (centres unmarked) [CBK265614]	98.1
Cc1cc(CNC(=O)N2CCCCC2CO)no1 (centres unmarked) [CBK156160]	108
CCS(=O)(=O)Nc1cc(C(F)(F)F)ccc1Cl [CBK111339]	111
COc1ccc(C(=O)O)cc1S(=O)(=O)Nc1c(-c2cccs2)nc2cc(C)ccn12 [CBK297484]	82.9
COCCn1c(CO)nnc1[C@H]1C[C@@H](NC(=O)c2cc(F)ccc2F)C1 [CBK307032]	85.1
CN1CCCN(CC(CC(=O)NCc2ccccc2)C(=O)O)CC1 (centres unmarked) [CBK286791]	86.6
CC1(C)CC(N(Cc2ccccc2)Cc2c[nH]cn2)CC(C)(C)N1 [CBK283196]	103
O=c1c2snc(-c3ccc(F)cc3)c2ncn1C1CC1 [CBK282859]	76.9
Cc1nnc(Sc2nc3ccccc3nc2C(F)(F)F)s1 [CBK093774]	94.8
Cc1cc(-n2cccn2)ccc1CN1CCCCC1CN1CCOCC1 (centres unmarked) [CBK307442]	83.2
O[C@@H]1C[C@@H](c2nc(-c3ccc4c(c3)OCO4)no2)N(Cc2cc3ccccc3o2)C1 [CBK288868]	83.9
Cc1cccc(-c2ncc(NC(=O)CCc3cccc(Cl)c3)nc2-c2cccnc2)c1 [CBK037201]	97.2
OCc1ccc(-n2ncc(-c3ccc(C(F)(F)F)cc3)n2)cc1 [CBK112696]	94.6
O=C(CCC(=O)c1ccccc1)Nc1ccccc1N1CCNCC1 [CBK028284T]	92.9
O=C(NNc1nc(-c2ccccc2)cc(-c2ccccc2)n1)Nc1ccccc1 [CBK262223]	91.3
Nc1nc2nn([C@H]3C[C@@H](O)[C@@H](CO)O3)cc2c(=O)[nH]1 [CBK201218]	90.3

SMILES	viability at 28.5 h, 10 µM [%]
CC(NC(=O)c1cn(-c2ccccc2)nc1-c1cccnc1)c1ccccn1 (centres unmarked) [CBK295660]	105
CCOC(=O)NC(=O)c1ccccc1 [CBK012359]	108
COc1ccc(C2(C(=O)NCCc3ccc(O)cc3)CC2)cc1 [CBK149833]	101
Cc1c(Cl)cccc1S(=O)(=O)Nc1nc(-c2cccc([N+](=O)[O-])c2)cs1 [CBK000994]	107
Cn1c(NC(=O)c2ccccc2[N+](=O)[O-])cc(=O)n(C)c1=O [CBK294417]	84
Cc1ccc(NC(=O)CN(c2ccccc2)S(=O)(=O)c2ccccc2[N+](=O)[O-])cc1C [CBK262345]	57.7
CCN(CC)CCn1cc(C2CCCN(C)CC2)c2ccccc21 (centres unmarked) [CBK023788B]	91.1
Cc1cc(C)c(C)c(S(=O)(=O)NCCCC(=O)O)c1C [CBK268898]	83.8
OCc1ccc(-n2ncc(-c3ccc(Br)cc3F)n2)cc1 [CBK112920]	96.6
CC(=O)Nc1ccc(S(=O)(=O)N2CC[C@H](c3nc4ccccc4o3)C2)cc1 [CBK289373]	103
CC(C)c1nc(CCN(C)C(=O)NCc2cc(-c3ccco3)on2)no1 [CBK307443]	97.8
C=CCc1cccc(Cl)c1OCCN1CCN(C)CC1 [CBK269734C]	90.5
CC(C)n1c(SCC(=O)Nc2nc(C(C)(C)C)cs2)nc2c1c(=O)n(C)c(=O)n2C [CBK127417]	104
COc1ccc(-c2nc3ncccc3cc2O)cc1C [CBK073700]	70.1
Nc1cccc(Sc2ncccn2)c1 [CBK085844]	93.4
CCOC(=O)C(NC(=O)N(C1=NCC(C)S1)C1CCCCC1)(OC)C(F)(F)F (centres unmarked) [CBK021431]	96.8
CCCc1nc(CN2CCN(c3ccc4nncn4n3)CC2)cs1 [CBK305330]	97.7
CN(Cc1ccccc1)c1nccnc1-c1cccnc1 [CBK037414]	93.5
CC(=O)c1ccc(-c2cnc(N)c(NCC(C)C)n2)s1 [CBK063764]	92.8
COC(=O)C(C)(C)NC(=O)c1ccn(-c2cc(C)ccc2OC)n1 [CBK305989]	107
Cc1ccc2nc(-c3ccc(N)cc3)sc2c1S(=O)(=O)O [CBK261510]	96.3
Cc1ccccc1CSc1cccc(F)c1 [CBK002913]	109

SMILES	viability at 28.5 h, 10 µM [%]
CCCCN(C)c1c(C)nc2c(OCC3CCCCO3)cccn12 (centres unmarked) [CBK147180]	103
O=C(NCCCc1ccccn1)c1cc2ccc(F)cc2[nH]1 [CBK283211]	84.4
CCN1CCc2nc(NC(=O)Cc3cn4ccsc4n3)sc2C1 [CBK304534]	90
Cc1nn(C)c(S(=O)(=O)N2CCOCC2c2cccc(F)c2)c1C(F)F (centres unmarked) [CBK304729]	86.3
COc1cc(Cl)nnc1Cl [CBK018956]	108
CCc1ccc(-n2nc3ccc(NC(=S)NC(=O)c4cc5ccccc5o4)cc3n2)cc1 [CBK264258]	101
O=C(Nc1cccnc1N1CCNCC1)c1ccoc1 [CBK029417T]	95.4
O=C1C(n2c(=O)[nH]c3ccccc3c2=O)CCN1CC(F)(F)F (centres unmarked) [CBK305264]	104
CCC(C(=O)O)N1C(=O)C(=Cc2ccc(-c3ccccc3C(F)(F)F)o2)SC1=S (centres unmarked) [CBK296985]	99.4
OCCC1CCCCN1c1cncc(-c2cccc(Cl)c2)n1 (centres unmarked) [CBK037906]	108
CCN1C(=O)CC(N2CCN(c3cc(-c4ccc(OC)cc4)nc(C)n3)CC2)C1=O (centres unmarked) [CBK269744]	106
Cc1nc(C2CCCN(C(=O)c3ccnn3C)C2)c2sccn12 (centres unmarked) [CBK285235]	87.2
OCc1ccc(-n2ncc(-c3ccc(F)cc3F)n2)cc1 [CBK112731]	97.3
CC(C)C12CN3CC(C(C)C)(CN(C1)C3c1ccc3c(c1)OCO3)C2=O (centres unmarked) [CBK265981]	100
O=C(OCc1ccccc1)N1CCC(C2OCc3cc(-c4ccc(C(=O)N5CCCC5)cc4)ccc3O2)CC1 (centres unmarked) [CBK153260]	108
CCOc1ccc(S(=O)(=O)Nc2ccc(C(=O)O)cc2)cc1 [CBK287171]	89.9
COC1CCCC(C(=O)NC(Cc2ccsc2)c2cccnc2)C1 (centres unmarked) [CBK284654]	84.4
O=C(CO)N1CC2(CCN(Cc3cc(=O)[nH]c(=O)[nH]3)CC2)c2ccccc21 [CBK131510]	106
CC(=O)Nc1ccccc1-c1nc2ccccc2o1 [CBK287568]	100
CCOC(=O)C1(Cc2cc(-c3ccccc3F)no2)CCNCC1 [CBK284580]	101
O=C(C1CC2C=CC1C21CC1)N1CCC(Oc2ccccc2F)CC1 (centres unmarked) [CBK282179]	103
O=C(CCc1ccc(S(=O)(=O)NC2CC2)cc1)N1CCCC1c1ccncc1 (centres unmarked) [CBK296673]	106

same assay, conditions: human, hela cells, % viability, bulk resorufin, single well

SMILES	viability at 28.5 h, 10 µM [%]
O=C(O)c1ccccc1C(=O)N1CCC2(CC1)OCc1cc(F)ccc1O2 [CBK060863]	109
